Patent US8067600B2, “Histone deacetylase inhibitors and methods of use thereof” (Georgetown University, priority 2003, dated 2011)
pIC50: −log10 of the molar value. Where two headings read alike, the source gives them in different places.

Key:
HDAC [1] = assay: HDAC activity inhibition assay, HeLa nuclear extracts, Fluor de Lys substrate; type: biochemical; conditions: HeLa nuclear extract, 37° C., 15 min, read-out: 50% HDAC activity inhibition
Experimental: For each test sample the corresponding assay reaction was performed in triplicate. […] For the selected Compounds of the Invention, samples at the following concentrations were prepared and tested: 1 μM, 5 μM, 10 μM, 100 μM and 1 mM.

SQ-20B cells [2] = assay: Radiation clonogenic survival assay (radiation sensitization); type: cell-based, human; design: α / β: unit not given here; conditions: drug at IC50 concentration for 24 h, then graded gamma radiation; for α / β: linear quadratic model; for Do in SQ-20B Cells (Gy): single hit multi-target model, Do without sensitizer 2.4 Gy
Experimental: To test the ability of the Compounds of the Invention to sensitize cells to radiation, we used radiation resistant squamous carcinoma cell line, SQ-20B, for initial radiosensitization experiments. SQ-20B is extremely resistant to ionizing radiation (Do=2.4 Gy in the absence of radiation sensitizers). Briefly, logarithmically growing SQ-20B cells were treated with a drug compound at the IC50 concentration (determined using the clonogenic survival assay illustrated in Example 21) for 24 h and then exposed to graded dose of gamma radiation. Clonogenic survivals were determined and fit to the single hit multi-target and the linear quadratic models.
The shape of radiation survival curves are determined by using either the single-hit multitarget model or the linear-quadratic model. The multitarget model is used to describe the radiation sensitivity of cells defined by the terminal slope of the radiation survival curve, which is referred to as Do. The steeper the slope, the smaller is the value of Do and the more radiation sensitive is the cellular response. Alternatively, a less steep slope results in a larger Do and a more resistant radiation response. The linear-quadratic model is also used to describe the radiation sensitivity defined by two components to cell killing by radiation: one is proportional to dose (αD) and the other is proportional to the square of the dose (βD^2). Thus, the dose at which the linear and quadratic components are equal is the ratio α/β.
Shown in Table 4 are the results of selected compounds of the invention in the radiation clonigenic survival assay.

SQ-20B cells [3] = tested on: SQ-20B cells
Experimental: (§3) For each concentration indicated, individual T25 flasks were seeded with the following number of SQ-20B cells: for no drug, 10 μM and 50 μM drug concentrations, separate T25 flasks were each seeded with 100 cells; for 100 μM and 300 μM drug concentrations, separate T25 flasks were each seeded with 200 cells each; and for 500 μM and 1 mM drug concentrations, separate T25 flasks were each seeded with 300 cells each. A Levy Hemacytometer (Hausser Scientific) was used to count the cells in stock suspension. Serial dilutions of stock suspension were performed to obtain the proper concentration for cell seeding. To conduct the cytotoxicity study the SQ20B cells were first seeded under the appropriate treatment specifications and allowed to settle for 24 hr in a tissue culture incubator set at 37° C. and 5% CO2. Cells were treated with their corresponding drugs for 24 hr and then washed with three rinses of PBS (10 mL per rinse) and provided with new media. The cells were then further incubated for colony formation and the colonies were stained using a staining solution consisting of: 5 g Crystal Violet, 700 mL methanol and 300 mL dH2O. The flasks were then destained with three rinses in cold water. After the third rinse the stained colonies were counted and the corresponding IC50 for each drug was calculated.

SQ-20B cells [4] = assay: Cytotoxicity in SQ-20B cells (colony formation); conditions: read-out: Cytotoxicity in SQ-20B cells (IC50); 24 hr drug treatment, colony formation
Experimental: as §3

HDAC [5] = assay: In vitro HDAC inhibitory activity using fluor-Lys as the substrate (BIOMOL); type: biochemical; conditions: for pIC50: read-out: 50% HDAC Activity Inhibition
Experimental: The in vitro HDAC inhibitory activity of these compounds was determined by using fluor-Lys as the substrate (BIOMOL).

[6] = tested on: human breast cancer cells (MCF-7); assay: Cytotoxicity following 24 h exposure, MCF-7 (FIG. 2); type: cell-based; conditions: breast carcinoma cells (MCF-7)
Experimental: (§1) FIG. 2 depicts graphically the cytotoxicities of various compounds of the invention following 24 h exposure of human breast cancer cells (MCF-7) and squamous cancer cells (SQ-20B).
(§2) To test the biological effects of the compounds of this and the previous Example, cytotoxicities were determined following 24 h exposure of human breast cancer cells (MCF-7) and squamous cancer cells (SQ-20B) to three compounds (4g, 4c and 10a). FIG. 2.

[7] = tested on: squamous cancer cells (SQ-20B); assay: Cytotoxicity following 24 h exposure, SQ-20B (FIG. 2); type: cell-based, human; conditions: squamous carcinoma cells (SQ-20B)
Experimental: as §1, §2

[8] = Cytotoxicity in SQ-20B cells (colony formation); conditions: human, SQ-20B squamous carcinoma cells
Experimental: as §3

## 4-[3-(4-Dimethylamino-benzyl)-ureido]-N-hydroxy-butyramide [Compound 2]
HDAC [1]
  pIC50: 6.10
SQ-20B cells [2]
  α: 0.1681
  β: 0.03301
  Do in SQ-20B Cells (Gy): 1.62 Gy
SQ-20B cells [3]
  pIC50: 4.30

## 5-[3-(4-dimethylamino-benzyl)-ureido]-pentanoic Acid Hydroxyamide [Compound 3]
HDAC [1]
  pIC50: 6.10
SQ-20B cells [2]
  α: 0.2420
  β: 0.02486
  Do in SQ-20B Cells (Gy): 1.72 Gy
SQ-20B cells [4]
  pIC50: 4.60

## CN(C)c1ccc(C(=O)NCCCNC(=O)CS)cc1 [Compound 4a, 4-Dimethylamino-N-[3-(2-mercapto-acetylamino)-propyl]-benzamide]
HDAC [5]; fluor-Lys substrate (BIOMOL)
  pIC50: 6.10

## CN(C)c1ccc(C(=O)NCCCCNC(=O)CS)cc1 [Compound 4b, 4-Dimethylamino-N-[4-(2-mercapto-acetylamino)-butyl]-benzamide]
HDAC [5]; fluor-Lys substrate (BIOMOL)
  pIC50: 5.33

## CN(C)c1ccc(C(=O)NCCCCCNC(=O)CS)cc1 [Compound 4c, 4-Dimethylamino-N-[5-(2-mercapto-acetylamino)-pentyl]-benzamide]
HDAC [5]
  pIC50: 6.70
[6]
  cytotoxicities (in words): dose-dependent cytotoxicities
[7]
  cytotoxicities (in words): dose-dependent cytotoxicities

## CN(C)c1ccc(C(=O)NCCCCCCNC(=O)CS)cc1 [Compound 4d, 4-Dimethylamino-N-[6-(2-mercapto-acetylamino)-hexyl]-benzamide]
HDAC [5]; fluor-Lys substrate (BIOMOL)
  pIC50: 6.35

## O=C(CS)NCCCNC(=O)c1ccc(-c2ccccc2)cc1 [Compound 4e, Biphenyl-4-carboxylic acid [3-(2-mercapto-acetylamino)-propyl]-amide]
HDAC [5]; fluor-Lys substrate (BIOMOL)
  pIC50: 6.10

## O=C(CS)NCCCCNC(=O)c1ccc(-c2ccccc2)cc1 [Compound 4f, Biphenyl-4-carboxylic acid [4-(2-mercapto-acetylamino)-butyl]-amide]
HDAC [5]; fluor-Lys substrate (BIOMOL)
  pIC50: 4.89

## O=C(CS)NCCCCCNC(=O)c1ccc(-c2ccccc2)cc1 [Compound 4g, Biphenyl-4-carboxylic acid [5-(2-mercapto-acetylamino)-pentyl]-amide]
HDAC [5]; fluor-Lys substrate (BIOMOL)
  pIC50: 6.26

## O=C(CS)NCCCCCNC(=O)c1ccccc1 [Compound 4h, N-[5-(2-Mercapto-acetylamino)-pentyl]-benzamide]
HDAC [5]; fluor-Lys substrate (BIOMOL)
  pIC50: 5.96

## O=C(CS)NCCCCCCNC(=O)c1ccccc1 [Compound 4i, N-[6-(2-Mercapto-acetylamino)-hexyl]-benzamide]
HDAC [5]; fluor-Lys substrate (BIOMOL)
  pIC50: 6.05

## O=C(CS)NCCCCCCNC(=O)CS [Compound 4j, 2-Mercapto-N-[6-(2-mercapto-acetylamino)-hexyl]-acetamide]
HDAC [5]; fluor-Lys substrate (BIOMOL)
  pIC50: 5.00

## CN(C)c1ccc(C(=O)NCc2ccc(CNC(=O)CS)cc2)cc1 [Compound 4k, 4-Dimethylamino-N-{4-[(2-mercapto-acetylamino)-methyl]-benzyl}-benzamide]
HDAC [5]; fluor-Lys substrate (BIOMOL)
  in vitro HDAC inhibitory activity (in words): comparable HDAC inhibitory activity
  pIC50: 6.70

## O=C(CS)NCCCCCNC(=O)c1cnc2ccccc2c1 [Compound 4l, Quinoline-3-carboxylic acid [5-(2-mercapto-acetylamino)-pentyl]-amide]
HDAC [5]; fluor-Lys substrate (BIOMOL)
  pIC50: 6.60

## O=C(CS)NCCCCCNC(=O)c1cccc2cccnc12 [Compound 4m, Quinoline-8-carboxylic acid [5-(2-mercapto-acetylamino)-pentyl]-amide]
HDAC [5]; fluor-Lys substrate (BIOMOL)
  pIC50: 6.40

## CN(C)c1ccc(CNC(=O)NCCCCCCC(=O)NO)cc1 [Compound 5, 7-[3-(4-dimethylamino-benzyl)-ureido]-heptanoic Acid Hydroyxamide]
HDAC [1]
  pIC50: 6.00
SQ-20B cells [2]
  α: 0.1978
  β: 0.02561
  Do in SQ-20B Cells (Gy): 1.78 Gy
[8]
  IC50 at 24 h: 50000 nM

## CN(C)c1ccc(CNC(=O)NCCCCCCCC(=O)NO)cc1 [Compound 6, 8-[3-(4-dimethylamino-benzyl)-ureido]-octanoic Acid Hydroxyamide]
HDAC [1]
  pIC50: 6.15
SQ-20B cells [2]
  α: 0.2846
  β: 0.01761
  Do in SQ-20B Cells (Gy): 1.94 Gy
[8]
  IC50 at 24 h: 50000 nM

## CN(C)c1ccc(NC(=O)NCCCCCCC(=O)NO)cc1 [Compound 7, 7-[3-(4-dimethylamino-phenyl)-ureido]-heptanoic Acid Hydroxyamide]
HDAC [1]
  pIC50: 6.15
SQ-20B cells [2]
  α: 0.1391
  β: 0.03335
  Do in SQ-20B Cells (Gy): 1.57 Gy
[8]
  IC50 at 24 h: 10000 nM

## O=C(CCCCCNC(=O)NC12CC3CC(CC(C3)C1)C2)NO [Compound 8, 6-(3-Adamantan-1-yl-ureido)-hexanoic Acid Hydroxyamide]
HDAC [1]
  pIC50: 6.10
SQ-20B cells [2]
  α: 0.2378
  β: 0.02282
  Do in SQ-20B Cells (Gy): 1.78 Gy
[8]
  IC50 at 24 h: 50000 nM

## O=C(CS)NCCCCCNC(=O)Nc1ccccc1 [Compound 9, 2-Mercapto-N-[5-(3-phenyl-ureido)-pentyl]-acetamide]
HDAC [1]
  pIC50: 6.05

## O=C(CS)NCCCCCCNC(=O)Nc1ccccc1 [Compound 10, 2-Mercapto-N-[6-(3-phenyl-ureido)-hexyl]-acetamide]
HDAC [1]
  pIC50: 6.05
SQ-20B cells [2]
  α: 0.1135
  β: 0.01558
  Do in SQ-20B Cells (Gy): 2.54 Gy
[8]
  IC50 at 24 h: 50000 nM

## O=C(CS)NCCCCCNC(=O)NCc1ccccc1 [Compound 11, N-[5-(3-benzyl-ureido)-pentyl]-2-mercapto-acetamide]
HDAC [1]
  pIC50: 5.80

## O=C(CS)NCCCCCCNC(=O)c1ccccc1 [Compound 21]
HDAC [1]
  pIC50: 5.80

## CN(C)c1ccc(C(=O)NCCCCCCNC(=O)CS)cc1 [Compound 22]
HDAC [1]
  pIC50: 6.10

## O=C(CS)NCCCCCNC(=O)c1ccc(-c2ccccc2)cc1 [Compound 23]
HDAC [1]
  pIC50: 6.12

## CN(C)c1ccc(C(=O)NCCCCCNC(=O)CS)cc1 [Compound 24]
HDAC [1]
  pIC50: 6.10

## O=C(CS)NCCCCCNC(=O)c1ccccc1 [Compound 25]
HDAC [1]
  pIC50: 6.00

## O=C(CCCCCCC(=O)Nc1ccccc1)NO [SAHA, suberoylanilide hydroxamic acid, reference compound]
SQ-20B cells [2]
  α: 0.01197
  β: 0.03152
  Do in SQ-20B Cells (Gy): 1.88 Gy

## CC(/C=C/C(=O)NO)=C\[C@@H](C)C(=O)c1ccc(N(C)C)cc1 [TSA, 7-(4-(dimethylamino)phenyl)-n-hydroxy-4,6-dimethyl-7-oxo-2,4-heptadienamide, reference compound]
SQ-20B cells [2]
  α: 0.1260
  β: 0.03059
  Do in SQ-20B Cells (Gy): 1.65 Gy
[8]
  IC50 at 24 h: 200 nM
